Data from ChEMBL document CHEMBL1147793, “Synthesis and biological investigations of dopaminergic partial agonists preferentially recognizing the D4 receptor subtype” (Bioorg Med Chem Lett, 2006).

How the values were obtained:
D(1A) dopamine receptor = D(1A) dopamine receptor (Sus scrofa, UniProt P50130); assay: Displacement of [3H]SCH-23390 from dopamine D1 receptor in porcine striatal membrane; assay type: cell membranes, Striatum
D(3) dopamine receptor [1] = molecular target: T1, D(3) dopamine receptor (Homo sapiens, UniProt P35462); assay: Displacement of [3H]spiperone from human cloned dopamine D3 receptor expressed in CHO cells; assay type: cell-based
T1 sequence (P35462 whole entry): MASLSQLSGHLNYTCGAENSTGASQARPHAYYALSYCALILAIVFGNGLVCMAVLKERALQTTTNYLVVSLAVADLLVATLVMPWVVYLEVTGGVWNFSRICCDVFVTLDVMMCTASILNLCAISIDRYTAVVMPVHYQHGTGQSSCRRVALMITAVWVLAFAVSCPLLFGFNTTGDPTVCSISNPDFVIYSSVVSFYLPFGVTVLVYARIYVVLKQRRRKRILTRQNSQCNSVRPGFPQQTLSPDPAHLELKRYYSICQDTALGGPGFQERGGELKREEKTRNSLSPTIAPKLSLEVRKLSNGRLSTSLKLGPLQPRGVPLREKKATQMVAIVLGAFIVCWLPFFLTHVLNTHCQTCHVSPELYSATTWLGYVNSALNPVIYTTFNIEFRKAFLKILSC

D(2) dopamine receptor [2] = molecular target: T2, D(2) dopamine receptor (Homo sapiens, UniProt P14416); assay: Displacement of [3H]spiperone from human cloned dopamine D2(short) receptor expressed in CHO cells; assay type: cell-based
T2 sequence (P14416 whole entry): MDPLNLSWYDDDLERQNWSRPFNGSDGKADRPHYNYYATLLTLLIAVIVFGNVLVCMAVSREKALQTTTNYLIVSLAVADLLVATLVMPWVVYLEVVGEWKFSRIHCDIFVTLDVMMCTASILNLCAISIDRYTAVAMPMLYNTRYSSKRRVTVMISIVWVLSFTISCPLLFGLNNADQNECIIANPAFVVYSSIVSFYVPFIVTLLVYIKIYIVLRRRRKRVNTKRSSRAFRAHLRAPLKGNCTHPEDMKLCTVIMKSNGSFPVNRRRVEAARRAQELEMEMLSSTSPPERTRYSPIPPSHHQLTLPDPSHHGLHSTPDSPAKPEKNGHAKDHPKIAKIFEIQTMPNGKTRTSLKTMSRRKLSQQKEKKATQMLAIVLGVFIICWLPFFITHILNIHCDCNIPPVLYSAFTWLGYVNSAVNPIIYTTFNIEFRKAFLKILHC

D(2) dopamine receptor [3] = molecular target: T2, D(2) dopamine receptor; assay: Displacement of [3H]spiperone from human cloned dopamine D2(long) receptor expressed in CHO cells; assay type: cell-based
D(4) dopamine receptor [4] = molecular target: T3, D(4) dopamine receptor (Homo sapiens, UniProt P21917); assay: Displacement of [3H]spiperone from human cloned dopamine D4 receptor expressed in CHO cells; assay type: cell-based
T3 sequence (P21917 whole entry): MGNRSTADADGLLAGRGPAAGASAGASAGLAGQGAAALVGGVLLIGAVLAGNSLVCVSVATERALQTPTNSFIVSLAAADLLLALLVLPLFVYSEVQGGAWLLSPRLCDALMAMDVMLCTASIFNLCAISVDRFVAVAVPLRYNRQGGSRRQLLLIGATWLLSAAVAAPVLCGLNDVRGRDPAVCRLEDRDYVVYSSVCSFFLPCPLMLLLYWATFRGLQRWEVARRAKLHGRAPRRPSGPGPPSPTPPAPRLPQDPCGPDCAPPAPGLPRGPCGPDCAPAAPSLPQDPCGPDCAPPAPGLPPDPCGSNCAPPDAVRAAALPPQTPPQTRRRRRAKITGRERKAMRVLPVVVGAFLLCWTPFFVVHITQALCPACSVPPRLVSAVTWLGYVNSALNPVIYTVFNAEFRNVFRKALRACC

D(4) dopamine receptor [5] = molecular target: T3, D(4) dopamine receptor; assay: Intrinsic activity against dopamine D4 receptor assessed as [3H]thymidine uptake in CHO cells by mitogenesis assay; assay type: functional, cell-based
D(4) dopamine receptor [6] = molecular target: T3, D(4) dopamine receptor; assay: Intrinsic activity against dopamine D4 receptor expressed in CHO cells by GTPgammaS assay; assay type: functional, cell-based
D(2) dopamine receptor [7] = molecular target: T2, D(2) dopamine receptor; assay: Intrinsic activity against dopamine D2(long) receptor assessed as [3H]thymidine uptake in CHO cells relative to quinpirole by mitogenesis assay; assay type: functional, cell-based
D(3) dopamine receptor [8] = molecular target: T1, D(3) dopamine receptor; assay: Intrinsic activity against dopamine D3 receptor assessed as [3H]thymidine uptake in CHO cells by mitogenesis assay
D(2) dopamine receptor [9] = molecular target: T2, D(2) dopamine receptor; assay: Intrinsic activity against dopamine D2(long) receptor assessed as [3H]thymidine uptake in CHO cells by mitogenesis assay; assay type: functional, cell-based
D(2) dopamine receptor [10] = molecular target: T2, D(2) dopamine receptor; assay: Intrinsic activity against dopamine D2(long) receptor expressed in CHO cells relative to quinpirole by GTPgammaS assay; assay type: functional, cell-based
D(2) dopamine receptor [11] = molecular target: T2, D(2) dopamine receptor; assay: Intrinsic activity against dopamine D2(short) receptor expressed in CHO cells relative to quinpirole by GTPgammaS assay; assay type: functional, cell-based
D(2) dopamine receptor [12] = molecular target: T2, D(2) dopamine receptor; assay: Intrinsic activity against dopamine D2(short) receptor expressed in CHO cells by GTPgammaS assay; assay type: functional, cell-based
D(2) dopamine receptor [13] = molecular target: T2, D(2) dopamine receptor; assay: Intrinsic activity against dopamine D2(short) receptor assessed as [3H]thymidine uptake in CHO cells by mitogenesis assay; assay type: functional, cell-based
[14] = molecular target: 5-hydroxytryptamine receptor 2A (Sus scrofa, UniProt P50129); assay: Displacement of […] from 5HT2 receptor in porcine striatal membrane; assay type: cell membranes, Striatum
Chain of 5-hydroxytryptamine receptor 2A (P50129 whole entry): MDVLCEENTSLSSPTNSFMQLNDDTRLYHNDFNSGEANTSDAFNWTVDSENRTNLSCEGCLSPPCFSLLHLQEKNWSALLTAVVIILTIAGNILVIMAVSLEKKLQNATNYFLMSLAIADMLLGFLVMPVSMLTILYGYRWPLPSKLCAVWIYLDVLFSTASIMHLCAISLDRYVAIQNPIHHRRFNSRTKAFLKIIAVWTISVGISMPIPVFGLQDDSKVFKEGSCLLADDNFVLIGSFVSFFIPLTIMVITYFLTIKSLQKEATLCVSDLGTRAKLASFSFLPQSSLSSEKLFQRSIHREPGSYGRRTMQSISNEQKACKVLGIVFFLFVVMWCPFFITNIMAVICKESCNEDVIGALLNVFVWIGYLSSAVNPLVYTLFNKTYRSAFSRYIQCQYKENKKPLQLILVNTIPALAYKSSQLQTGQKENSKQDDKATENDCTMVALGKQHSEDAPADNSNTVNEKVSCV

D(2) dopamine receptor [15] = molecular target: T2, D(2) dopamine receptor; assay: Intrinsic activity against dopamine D2(long) receptor expressed in CHO cells by GTPgammaS assay; assay type: functional, cell-based
D(2) dopamine receptor [16] = molecular target: T2, D(2) dopamine receptor; assay: Intrinsic activity against dopamine D2(short) receptor assessed as [3H]thymidine uptake in CHO cells relative to quinpirole by mitogenesis assay; assay type: functional, cell-based

Chain of D(1A) dopamine receptor (P50130 whole entry): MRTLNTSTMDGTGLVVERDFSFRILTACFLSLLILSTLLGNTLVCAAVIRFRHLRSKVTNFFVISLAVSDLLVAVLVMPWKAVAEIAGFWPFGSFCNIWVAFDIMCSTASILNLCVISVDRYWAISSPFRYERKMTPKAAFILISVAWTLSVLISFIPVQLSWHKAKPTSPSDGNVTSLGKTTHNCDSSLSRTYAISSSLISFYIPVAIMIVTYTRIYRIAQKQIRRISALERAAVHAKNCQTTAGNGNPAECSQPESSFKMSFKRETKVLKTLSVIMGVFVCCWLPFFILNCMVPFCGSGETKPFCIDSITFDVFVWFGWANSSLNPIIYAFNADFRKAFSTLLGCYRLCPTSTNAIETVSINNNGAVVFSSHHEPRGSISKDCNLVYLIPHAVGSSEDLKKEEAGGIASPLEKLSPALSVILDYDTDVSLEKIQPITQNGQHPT

Row | SMILES | Ki (D(1A) dopamine receptor) | Ki (D(3) dopamine receptor [1]) | Ki (D(2) dopamine receptor [2]; read-out: Ki) | Ki (D(2) dopamine receptor [3]) | Ki (D(4) dopamine receptor [4]) | further results
1 | Fc1ccccc1N1CCN(Cc2cnn(-c3ccccc3)c2)CC1 | 680 nM | 67 nM | 37 nM | 63 nM | 0.7 nM | 
2 | c1ccc(N2CCN(Cc3ccc(-n4cccn4)cc3)CC2)cc1 | 7600 nM | 2100 nM | 2400 nM | 3000 nM | 20 nM | 
3 | c1ccc(-c2c[nH]c(CN3CCN(c4ccccc4)CC3)c2)cc1 | 2100 nM | 514 nM |  |  |  | 
4 | c1ccc(N2CCN(Cc3cn(-c4ccccc4)nn3)CC2)cc1 | 21000 nM | 1200 nM | 860 nM | 1500 nM | 9.9 nM | 
5 | Cc1nn(-c2ccccc2)cc1CN1CCN(c2ccccc2)CC1 | 3900 nM | 360 nM | 43 nM | 71 nM | 1 nM | 
6 | Clc1ccc(N2CCN(Cc3cnn(-c4ccccc4)c3)CC2)cc1 | 7500 nM | 1900 nM |  | 2900 nM | 2.9 nM | Ki (D(2) dopamine receptor [2]): 1900 nM
7 | Cc1c(CN2CCN(c3ccccc3)CC2)cnn1-c1ccccc1 | 560 nM | 320 nM | 250 nM | 630 nM | 5.3 nM | 
8 | C1=C(c2ccccc2)CCN(Cc2cnn(-c3ccccc3)c2)C1 | 3000 nM | 33 nM | 28 nM | 38 nM | 0.59 nM | EC50 (D(4) dopamine receptor [5]): 5.6 nM; EC50 (D(4) dopamine receptor [6]): 9.5 nM; Efficacy (D(2) dopamine receptor [7]): 54%; EC50 (D(3) dopamine receptor [8]): 3.3 nM; EC50 (D(2) dopamine receptor [9]): 3 nM; Efficacy (D(2) dopamine receptor [10]): 45%; Efficacy (D(2) dopamine receptor [11]): 17%; EC50 (D(2) dopamine receptor [12]): 32 nM; EC50 (D(2) dopamine receptor [13]): 1.7 nM; Ki [14]: 2100 nM; EC50 (D(2) dopamine receptor [15]): 25 nM; Efficacy (D(2) dopamine receptor [16]): 30%
9 | c1ccc(N2CCN(Cc3cnn(-c4ccccc4)c3)CC2)cc1 | 1600 nM | 140 nM | 75 nM | 140 nM | 1 nM | 
10 | COc1ccccc1N1CCN(Cc2cn(-c3ccccc3)nn2)CC1 | 27000 nM | 340 nM | 65 nM | 120 nM | 2.7 nM | 
11 | c1ccc(N2CCN(Cc3cnn(-c4ccccn4)c3)CC2)cc1 | 1600 nM | 160 nM | 190 nM | 340 nM | 2.6 nM | 
12 | C1=C(c2ccccc2)CCN(Cc2cn(-c3ccccc3)nn2)C1 | 10000 nM | 94 nM | 110 nM | 220 nM | 3.2 nM | 
13 | COc1ccccc1N1CCN(Cc2cnn(-c3ccccn3)c2)CC1 | 1900 nM | 72 nM | 31 nM | 40 nM | 0.44 nM | 
14 | c1ccc(-n2cc(CN3CCN(c4ncccn4)CC3)cn2)cc1 | 7100 nM | 2900 nM | 14000 nM | 6000 nM | 310 nM | 
15 | Fc1ccc(N2CCN(Cc3cnn(-c4ccccc4)c3)CC2)cc1 | 1900 nM | 540 nM | 400 nM | 450 nM | 2.9 nM | 
16 | COc1ccccc1N1CCN(Cc2cnn(-c3ccccc3)c2)CC1 | 1000 nM | 35 nM | 8 nM | 11 nM | 0.28 nM | EC50 (D(4) dopamine receptor [5]): 0.6 nM; Efficacy (D(2) dopamine receptor [7]): 56%; EC50 (D(3) dopamine receptor [8]): 0.21 nM; EC50 (D(2) dopamine receptor [9]): 0.28 nM; EC50 (D(2) dopamine receptor [13]): 0.22 nM; Ki [14]: 1300 nM; Efficacy (D(2) dopamine receptor [16]): 66%
